{"source": "patent US4181728A", "about": "“Spiro-polycyclicimidazolidinedione derivatives” (Pfizer Inc., priority 1978, dated 1980)", "key": {"[1]": {"molecular_target": "T1, aldose reductase enzyme obtained from calf lens (Bos taurus, UniProt P16116)", "T1 construct": "partially purified aldose reductase enzyme obtained from calf lens; from tissue; host or cells: calf lens", "assay": "Aldose reductase inhibitory activity (partially purified calf lens enzyme)", "assay_type": "biochemical", "details": "10^-4 M, * = average of 2 or 3 tests (Examples 2, 5, 6, 7)", "description": "The Examples of spiro-polycyclicimidazolidinedione derivatives prepared above were tested for their ability to reduce or inhibit aldose reductase enzyme activity, following the procedure described in U.S. Pat. No. 3,821,383 and based on the procedure of Hayman et. al., Journal of Biological Chemistry, 240, 877 (1965). The substrate employed was partially purified aldose reductase enzyme obtained from calf lens. The drug was tested at a concentration of 10^-4 M and optionally at lower concentrations and the results are expressed as percent inhibition of enzyme activity.\n*This number represents an average of 2 or 3 tests."}, "[2]": {"tested_on": "sorbitol accumulation in the sciatic nerve", "assay": "Inhibition of sorbitol accumulation in the sciatic nerve of streptozotocinized (diabetic) rats", "assay_type": "in vivo, rat", "details": "measured 27 h after induction, vs untreated", "description": "Some of the Examples of spiro-polycyclicimidazolidinedione derivatives prepared above were also tested for their ability to reduce or inhibit sorbitol accumulation in the sciatic nerve of streptozotocinized (i.e., diabetic) rats by the procedure essentially described in U.S. Pat. No. 3,821,383. In the present study, the amount of sorbitol accumulation in the sciatic nerves was measured 27 hours after induction of diabetes. The compounds were administered orally at the dose level indicated at 4, 8 and 24 hours following the administration of streptozotocin. The results obtained in this manner are presented in terms of percent inhibition (%) afforded by the test compound as compared to the case where no compound was administered (i.e., the untreated animal where sorbitol levels normally rise from approximately […] tissue to as high as 400 mM/g tissue in the 27-hour test period)."}, "[3]": {"details": "1.5 mg/kg oral at 4, 8 and 24 h after streptozotocin"}, "[4]": {"details": "5.0 mg/kg oral at 4, 8 and 24 h after streptozotocin"}}, "data": [{"smiles": "O=C1NC(=O)C2(CCSc3c2ccc2ccccc32)N1", "note": "(centres unmarked) [Example 4, 2',3'-dihydro-spiro[imidazolidine-4,4'-[4'H]-naphtho[1,2-b]thiopyran]-2,5-dione]", "values": [{"measurement": "inhibition at 100 µM", "setting": "[1]", "result": 100, "unit": "%"}, {"measurement": "% Inhibition of sorbitol accumulation", "setting": "[2]; [3]", "result": 32, "unit": "%"}]}, {"smiles": "O=C1NC(=O)C2(CCCc3ccc4ccccc4c32)N1", "note": "(centres unmarked) [Example 10, 1',2',3',4'-tetrahydro-spiro[imidazolidine-4,4'-phenanthrene]-2,5-dione]", "values": [{"measurement": "inhibition at 100 µM", "setting": "[1]", "result": 60, "unit": "%"}]}, {"smiles": "O=C1NC(=O)C2(CCCc3c2ccc2ccccc32)N1", "note": "(centres unmarked) [Example 7, 1',2',3',4'-tetrahydro-spiro[imidazolidine-4,1'-phenanthrene]-2,5-dione]", "values": [{"measurement": "inhibition at 100 µM", "setting": "[1]", "result": 86, "unit": "%"}, {"measurement": "% Inhibition of sorbitol accumulation", "setting": "[2]; [3]", "result": "no effect"}]}, {"smiles": "O=C1NC(=O)C2(CCOc3c2cc(Cl)c2ccccc32)N1", "note": "(centres unmarked) [Example 5, 5',6'-dihydro-6'-chloro-spiro[imidazolidine-4,4'-[4'H]-naphtho[1,2-b]pyran]-2,5-dione]", "values": [{"measurement": "inhibition at 100 µM", "setting": "[1]", "result": 78, "unit": "%"}, {"measurement": "% Inhibition of sorbitol accumulation", "setting": "[2]; [4]", "result": 58, "unit": "%"}]}, {"smiles": "COc1cccc2c3c(ccc12)C1(CCO3)NC(=O)NC1=O", "note": "(centres unmarked) [Example 2, 2',3'-dihydro-7'-methoxy-spiro[imidazolidine-4,4'-[4'H]-naphtho[1,2-b]pyran]-2,5-dione]", "values": [{"measurement": "inhibition at 100 µM", "setting": "[1]", "result": 94, "unit": "%"}, {"measurement": "% Inhibition of sorbitol accumulation", "setting": "[2]; [3]", "result": "no effect"}]}, {"smiles": "O=C1NC(=O)C2(CCOc3ccc4ccccc4c32)N1", "note": "(centres unmarked) [Example 6, 2',3'-dihydro-spiro[imidazolidine-4,4'-[4'H]-naphtho[2,1-b]pyran]-2,5-dione]", "values": [{"measurement": "inhibition at 100 µM", "setting": "[1]", "result": 78, "unit": "%"}, {"measurement": "% Inhibition of sorbitol accumulation", "setting": "[2]; [3]", "result": "no effect"}]}, {"smiles": "O=C1NC(=O)C2(CCCc3ccc4cc5ccccc5cc4c32)N1", "note": "(centres unmarked) [Example 3, 1',2',3',4'-tetrahydro-spiro[imidazolidine-4,1'-benz[a]anthracene]-2,5-dione]", "values": [{"measurement": "inhibition at 100 µM", "setting": "[1]", "result": 26, "unit": "%"}]}, {"smiles": "O=C1NC(=O)C2(CCSc3ccc4ccccc4c32)N1", "note": "(centres unmarked) [Example 1, 2',3'-dihydro-spiro[imidazolidine-4,4'-[4'H]-naphtho[2,1-b]thiopyran]-2,5-dione]", "values": [{"measurement": "inhibition at 100 µM", "setting": "[1]", "result": 59, "unit": "%"}]}, {"smiles": "O=C1NC(=O)C2(CCOc3c2ccc2ccccc32)N1", "note": "(centres unmarked) [Example 9, 2',3'-dihydro-spiro[imidazolidine-4,4'-[4'H]-naphtho[1,2-b]pyran]-2,5-dione]", "values": [{"measurement": "inhibition at 100 µM", "setting": "[1]", "result": 72, "unit": "%"}, {"measurement": "% Inhibition of sorbitol accumulation", "setting": "[2]; [3]", "result": 30, "unit": "%"}]}, {"smiles": "O=C1NC(=O)C2(CCc3cccc4cccc2c34)N1", "note": "(centres unmarked) [Example 8, 2',3'-dihydro-spiro[imidazolidine-4,1'-phenalene]-2,5-dione]", "values": [{"measurement": "inhibition at 100 µM", "setting": "[1]", "result": 71, "unit": "%"}, {"measurement": "% Inhibition of sorbitol accumulation", "setting": "[2]; [4]", "result": 28, "unit": "%"}]}]}
